Data taken from a melting point compilation (Tetko et al.; mined from patent text by program, amines drawn as free bases though some values may be those of a salt).

Which melting point does the source give for `O=C(Nc1cccc(S(=O)(=O)N2CCOCC2)c1)c1cnn2c(C(F)(F)F)cc(-c3ccc(C(F)(F)F)cc3)nc12` here?
Its melting point is 233 °C.

For `COC(=O)c1c(O)c2cc(OCc3ccccc3)ccc2c(=O)n1CC(C)C`, which melting point is on record?
Its melting point is 109 to 110 °C.

Which melting point does the source give for `CSc1ccc2c(c1)C(Cl)c1ccccc1C=C2` (stereo not drawn) here?
Its melting point is 135 to 138 °C.

For `CCCCCCCCc1cc2c(cc1C(C)=O)C(C)(C)CCS2(=O)=O`, which melting point is on record?
The melting point was 77 to 78 °C.

For `O=C(O)c1ccccc1Sc1cccc2c1C(=O)NC2=O`, which melting point is on record?
The melting point was 289 to 290 °C.

With `Fc1ccc(-c2nc3ccc(N4CCC5(CCCNC5)CC4)nn3c2-c2ccnc3[nH]ccc23)cc1` as the molecule, how does the melting point read?
Its melting point is 279 to 280 °C.

With `COc1ccc([C@@H]2OC(=O)[C@H](C)N2C(=O)OCc2ccccc2)cc1` as the molecule, how does the melting point read?
The melting point was 97 to 99 °C.

With `O=C(c1ccccc1)c1ccc([N+](=O)[O-])c(C(=O)O)c1` as the molecule, how does the melting point read?
The melting point was 169 °C.

Which melting point does the source give for `COc1ccc(C(=O)N(C)c2ccc(CO)cc2)cc1` here?
Its melting point is 85 to 90 °C.

Which melting point does the source give for `O=C(O)c1cccc(Cc2c[nH]cn2)c1O` here?
The melting point was 245 to 252 °C.

Which melting point does the source give for `COC(=O)c1ccc(OCCNC(=O)C2Cc3ccccc3N2S(=O)(=O)c2ccc(-c3cccc(C(F)(F)F)c3)cc2)cc1F` (stereo not drawn) here?
Its melting point is 63 to 70 °C.

For `NCC(O)C1=CC2(CCCCC2)c2ccccc21` (stereo not drawn), which melting point is on record?
Its melting point is 117 °C.

With `Cc1ccc(NC(=O)c2cnn3c(C(F)F)cc(-c4ccc(C(F)(F)F)cc4)nc23)cc1S(N)(=O)=O` as the molecule, how does the melting point read?
The melting point was 249 °C.

For `NC(=O)/C=C1\CCc2c(Cl)cc(F)cc21`, which melting point is on record?
Its melting point is 182 to 184 °C.

For `CC1CCCN1CCCOc1ccc(C2CCC(O)CC2)cc1` (stereo not drawn), which melting point is on record?
The melting point was 80 °C.

With `NC1=NC(c2cccc(Oc3ccccc3)c2)N(c2cccc(Cc3ccccc3)c2)C(N)=N1` (stereo not drawn) as the molecule, how does the melting point read?
Its melting point is 165 to 167 °C.

For `CC1CC(c2cc3c(C(F)(F)F)cccc3s2)CCN1` (stereo not drawn), which melting point is on record?
The melting point was 106 to 108 °C.

Which melting point does the source give for `COc1ccc(C(=O)Nc2c(Cl)cncc2Cl)cc1OC1COCC1OCc1ccccc1` (stereo not drawn) here?
Its melting point is 190 to 191 °C.

For `c1cc2cc3cnccc3cc2cn1`, which melting point is on record?
The melting point was 174 °C.

Which melting point does the source give for `CCc1n[nH]c(=O)n1N` here?
The melting point was 171 °C.

Which melting point does the source give for `COC(=O)C1(O)CC(O[Si](C)(C)C(C)(C)C)C(O)C(O[Si](C)(C)C(C)(C)C)C1` (stereo not drawn) here?
Its melting point is 82 to 82.5 °C.

With `COC(=O)c1ccccc1-c1cc(-c2ccc(OC)cc2)on1` as the molecule, how does the melting point read?
Its melting point is 96.5 to 98 °C.

Which melting point does the source give for `Cc1noc(NS(=O)(=O)c2ccsc2NC(=O)Nc2sccc2S(=O)(=O)Nc2onc(C)c2C)c1C` here?
Its melting point is 112 to 114 °C.

For `CCCCc1nc2c(N)nc3ccccc3c2n1CC1(O)CCOCC1`, which melting point is on record?
Its melting point is 235 to 236 °C.

With `CNC(=O)c1[nH]c(=O)[nH]c1C` as the molecule, how does the melting point read?
Its melting point is greater than 300 °C.

For `O=C(/C=C/c1ccc(C(=O)O)s1)NOC1CCCCO1` (stereo not drawn), which melting point is on record?
The melting point was 177 °C.

With `O=C(O)c1cccc2cc(-c3ccccc3)oc12` as the molecule, how does the melting point read?
The melting point was 212 to 214 °C.

For `CCOC(=O)NN=COC(CC)NC` (stereo not drawn), which melting point is on record?
The melting point was 104 °C.

Which melting point does the source give for `CC(C)c1cccc(C(C)C)c1NC(=O)N(Cc1ccccc1)CC(c1ccccc1)c1ccccc1` here?
The melting point was 153 to 155 °C.

Which melting point does the source give for `COC(=O)CCc1ccc(N2C(=O)CN(c3ccc(C#N)cc3)C2=O)cc1` here?
The melting point was 188 to 190 °C.

For `CCCOc1nc(-c2ccco2)c2ncn(Cc3ccc(OC)cc3)c2n1`, which melting point is on record?
Its melting point is 119 °C.

Which melting point does the source give for `COc1cc(C(=O)Cc2ccccc2C)ccc1O` here?
The melting point was 79 to 81 °C.

Which melting point does the source give for `CC(Cc1ccccc1)(C(=NC#N)NCc1ccco1)c1ccccn1` (stereo not drawn) here?
Its melting point is 152 to 154 °C.

With `COC(=O)c1ccc(Cn2ncc3ccc(N)cc32)cc1` as the molecule, how does the melting point read?
The melting point was 131 to 132 °C.

For `O=C(O)c1ccc(C(=O)N[C@@H](Cc2c[nH]c3ccccc23)C(=O)O)cc1`, which melting point is on record?
The melting point was 187 to 189 °C.

With `COc1cc2c(cc1OC)C(Oc1ccc(C(F)(F)F)cc1)CN(CC#N)CC2` (stereo not drawn) as the molecule, how does the melting point read?
The melting point was 93 to 94 °C.

With `COC(=O)c1ccc2c(c1)Sc1ccc(F)cc1C(=O)C2` as the molecule, how does the melting point read?
Its melting point is 129 to 131 °C.

Which melting point does the source give for `CCCn1c(COCc2ccc(OC)cc2)nc(C(C)C)c1Sc1cc(Cl)cc(Cl)c1` here?
Its melting point is 104 to 107 °C.

For `COc1ccc(OC)c(C(=O)c2cccc([N+](=O)[O-])c2)c1`, which melting point is on record?
Its melting point is 98 °C.

Which melting point does the source give for `CCOC(=O)Cc1cnc(N=C2SCC3Cc4ccccc4CN23)s1` (stereo not drawn) here?
The melting point was 132 °C.

Which melting point does the source give for `CCOCCn1c(COc2ccc(CO)cc2)nc2ccccc21` here?
The melting point was 90 to 92 °C.

With `Cc1nc(N)c2nc(C)n(NCCCNS(C)(=O)=O)c2c1C` as the molecule, how does the melting point read?
Its melting point is 215 to 217 °C.

Which melting point does the source give for `CC(C)c1nc2cc(N)ccn2n1` here?
Its melting point is 174 to 176 °C.

Which melting point does the source give for `Cc1cccc(Nc2nc(N(C)C)ncc2S(=O)(=O)NC(=O)NC(C)C)c1` here?
The melting point was 178 to 179 °C.

For `COc1ccc(Cc2cnc(N)nc2N)cc1OCCCSc1ccc(NC(C)=O)cc1`, which melting point is on record?
Its melting point is 175 to 177 °C.

With `Cc1c(NC(=O)c2ccc(OC[C@@H]3CCCO3)cc2)ccc2cc(CN3CCC(C)(O)CC3)cnc12` as the molecule, how does the melting point read?
The melting point was 169 to 174 °C.

With `CC(=NNc1ccc(C2=NNC(=O)CC2C)cc1)c1ccc(O)cc1O` (stereo not drawn) as the molecule, how does the melting point read?
Its melting point is 259 to 261 °C.

With `Cc1c(-c2ccccc2)oc2c(CN=[N+]=[N-])cccc2c1=O` as the molecule, how does the melting point read?
Its melting point is 132 to 134 °C.

For `Cc1noc(NS(=O)(=O)c2cc(-c3ccccc3)cs2)c1Br`, which melting point is on record?
The melting point was 108 to 110 °C.

For `CCCCCCCCCCCCCC(=O)O[C@H](CCCCCCCCCCC)CC(=O)O`, which melting point is on record?
The melting point was 28 to 29 °C.

With `O=C1Nc2ccc(F)cc2C(CCc2ccccc2)(C(F)(F)F)N1` (racemic) as the molecule, how does the melting point read?
Its melting point is 98 °C.

With `Cc1cc(F)ccc1Nc1c(C(=O)C(C)C)cnc2c(CO)cccc12` as the molecule, how does the melting point read?
The melting point was 139 to 140 °C.

Which melting point does the source give for `NCC1CCCN(c2ncc3ncnc(Nc4ccc(F)c(Cl)c4)c3n2)C1` (stereo not drawn) here?
The melting point was 132 to 137 °C.

With `Cc1cc2ccncc2c(=O)c2ccccc12` as the molecule, how does the melting point read?
Its melting point is 112 to 116 °C.

For `CSc1c(O[C@@H]2CCC[C@H](N3C(=O)c4ccccc4C3=O)C2)ccc2[nH]ncc12` (relative stereo), which melting point is on record?
The melting point was 156 to 157 °C.

With `O=C(Cl)C12CC(C(=O)Cl)(C1)C2` as the molecule, how does the melting point read?
Its melting point is 55 to 57 °C.

For `CNCc1ccc2cc(OC)ccc2c1`, which melting point is on record?
Its melting point is 96 to 104 °C.

With `Cc1sc(-c2ccco2)nc1O` as the molecule, how does the melting point read?
The melting point was 173 to 174 °C.

Which melting point does the source give for `O=C(OC1CCCCC1)C1=C(c2ccccc2)C(c2ccccc2)OC1=O` (stereo not drawn) here?
The melting point was 139 to 142 °C.

With `COc1ccc(Oc2ccc3ccc(NC(=O)c4ccc(OC)cc4)nc3n2)cc1` as the molecule, how does the melting point read?
The melting point was 163 °C.

With `COc1ccc(CNC(=O)C(=O)NCCc2cccs2)c(OC)c1` as the molecule, how does the melting point read?
Its melting point is 146 to 147 °C.

Which melting point does the source give for `CCc1nc2c(NC(=O)c3ccccc3)nc3ccccc3c2n1CCCCNS(C)(=O)=O` here?
The melting point was 249 to 250 °C.

With `COc1ccc2sc(C34CC5CC(CC(C5)C3)C4)cc(=O)c2c1` as the molecule, how does the melting point read?
Its melting point is 140 °C.

With `CC(C)(C)ONc1ccccc1` as the molecule, how does the melting point read?
Its melting point is 67 to 69 °C.

For `COc1ccc2c(=O)cc(-c3cc[nH]n3)oc2c1`, which melting point is on record?
The melting point was 170 to 171 °C.

For `FC(F)(F)c1cccc(-c2ccc3nncn3n2)c1`, which melting point is on record?
Its melting point is 140 to 143 °C.

Which melting point does the source give for `C[C@H](C(=O)O)n1nc(O)c2[nH]c3cc(Cl)ccc3c(=O)c2c1=O` here?
The melting point was greater than 275 °C.

Which melting point does the source give for `CCN(CC)CC1CCCCN1CC(=O)N1c2ccc(C)cc2C(=O)Nc2cccnc21` (stereo not drawn) here?
The melting point was 173 to 174 °C.

Which melting point does the source give for `CC1CCCN1C1CCN(c2ccc(CC(=O)NC3CCOCC3)cc2)C1` (stereo not drawn) here?
Its melting point is 155 to 157 °C.

For `Cc1cccc(C)c1NC(=O)c1ccc(NC(=O)CN(C)C)cc1`, which melting point is on record?
Its melting point is 276 to 278 °C.

With `CCCCc1ncc(C(=O)OCC)c(=O)n1Cc1ccc(-c2ccccc2-c2nc(=O)o[nH]2)cc1` as the molecule, how does the melting point read?
Its melting point is 151 to 154 °C.

Which melting point does the source give for `COC(=O)c1cc2cc(Br)ccc2nc1Cl` here?
The melting point was 176 to 177 °C.

With `NC(=O)N1c2ccccc2C=C([N+](=O)[O-])c2ccccc21` as the molecule, how does the melting point read?
Its melting point is 208 to 212 °C.
